The source of these data is patent US12185774B2, “Methods and devices for preventing viral transmission” (priority 2020, dated 2025).

Assay [1] concerns HUVEC cells. Briefly: Electric-field-induced reorientation of endothelial cells (orientation index Oi). The class given is cell-based. As to conditions: for orientation response in EF (in words): inhibitors 50 μM (latrunculin 50 nM), 1 hour before and during EF.
Method: A series of images was taken with an image analyser immediately before EF exposure and at 4, 8 and 24 hours of EF exposure. Cell orientation was quantified as an orientation index (Oi), which is defined as Oi=cos2 (a), where a is the angle formed by the long axis of a cell with a line drawn perpendicular to the field lines. A cell with its long axis parallel to the vector of the EF will have an Oi of −1, and a cell with its long axis exactly perpendicular to the EF vector will have an Oi of +1. A randomly oriented population of cells will have an average Oi {defined as [Σn cos2(α)]+n} of 0. The significance of this two-dimensional orientation distribution against randomness was calculated using Rayleigh's distribution. A long:short axis ratio was calculated for assessment of elongation.
Cell alignment was quantified using an orientation index Oi=cos2(α), where a is the angle formed between the long axis of a cell and a line drawn perpendicular to the field lines. In cells oriented perpendicular to the field vector, the Oi is +1, cells parallel to the field vector give an Oi of −1 and random orientation gives an Oi of 0.
For assay [2], the system named is HUVEC cells. Briefly: Electric-field-induced elongation of endothelial cells (long:short axis ratio). The format is cell-based. The method, then: HUVEC cells were seeded in a trough formed by two parallel (1 cm apart) strips of glass coverslip (No. 1, length of 22 mm) fixed to the base of the dish with silicone grease. Scratch lines were made perpendicular to the long axis of the chamber with a fine sterile needle and used as reference marks for directed cell migration. Cells were incubated for 24-48 hours (37° C., 5% CO2) before a roof coverslip was applied and sealed with silicone grease. The final dimensions of the chamber, through which current was passed, were 22×10×0.2 mm. Agar-salt bridges not less than 15 cm long were used to connect silver/silver-chloride electrodes in beakers of Steinberg's solution (58 mM NaCl, 0.67 mM KCl, 0.44 mM Ca(NO3)2, 1.3 mM MgSO4, 4.6 mM Trizma base, pH 7.8-8.0), to pools of excess culture medium at either side of the chamber. Field strengths were measured directly at the beginning of, the end of and during each experiment. No fluctuations in field strength were observed. […] (50 μM), the Rho kinase inhibitor Y27632 (50 μM), both Akt and Rho kinase inhibitors (10 μM each) or latrunculin (50 nM) for 1 hour before EF stimulation. The same concentration of drug was present during EF exposure in a CO2 incubator.
A series of images was taken with an image analyser immediately before EF exposure and at 4, 8 and 24 hours of EF exposure. Cell orientation was quantified as an orientation index (Oi), which is defined as Oi=cos2 (a), where a is the angle formed by the long axis of a cell with a line drawn […] to the field lines. A cell with its long axis parallel to the vector of the EF will have an Oi of −1, and a cell with its long axis exactly perpendicular to the EF vector will have an Oi of +1. […] The significance of this two-dimensional orientation distribution against randomness was calculated using Rayleigh's distribution. A long:short axis ratio was calculated for assessment of elongation.
HUVEC cells elongated dramatically in an EF. […] We quantified the elongation of the cells using a long:short axis ratio. […]

Assay [3] concerns HaCaT human keratinocytes. Put plainly: Scratch assay, HaCaT keratinocyte migration, Example 3. As to conditions: catalase over-expression; 5 mM N-acetylcysteine 1 h pretreatment; 50 nM IGF-1R inhibitor.
Method: Cell culture—Immortalized HaCaT human keratinocytes were grown in Dulbecco's low-glucose modified Eagle's medium (Life Technologies, Gaithersburg, MD, U.S.A.) supplemented with 10% fetal bovine serum, 100 U/ml penicillin, and 100 g/ml streptomycin. The cells were maintained in a standard culture incubator with humidified air containing 5% CO2 at 37° C.
Scratch assay—A cell migration assay was performed using culture inserts (IBIDI®, Verona, WI) according to the manufacturer's instructions. Cell migration was measured using time-lapse phase-contrast microscopy following withdrawal of the insert. Images were analyzed using the AxioVision Rel 4.8 software.
N-Acetyl Cysteine Treatment—Cells were pretreated with 5 mM of the thiol antioxidant N-acetylcysteine (Sigma) for 1 h before start of the scratch assay.
IGF-1R inhibition—When applicable, cells were preincubated with 50 nM IGF-1R inhibitor, picropodophyllin (Calbiochem, MA) just prior to the Scratch Assay.
Catalase gene delivery—HaCaT cells were transfected with 2.3×10^7 pfu AdCatalase or with the empty vector as control in 750 μL of media. Subsequently, 750 μL of additional media was added 4 h later and the cells were incubated for 72 h.

As for “1-L-6-hydroxymethyl-chiro-inositol 2-[(R)-2-O-methyl-3-O-octadecylcarbonate] [Akt inhibitor]”, the “orientation response in EF (in words)” value in assay [1] is listed as “significantly decreased the orientation response”. In assay [2], the “long:short axis ratio / elongation response in EF-treated cells (in words)” value is reported as “significantly decreased the long:short axis ratio”.
Turning to `COc1cc([C@@H]2c3cc4c(cc3[C@H](O)[C@H]3COC(=O)[C@@H]23)OCO4)cc(OC)c1OC` [IGF-1R inhibitor, picropodophyllin], the “effect on the increased migration triggered by LLEC” value in assay [3] was “attenuated the increased keratinocyte migration”.
As to `C/C1=C/C(=O)O[C@@H]2C[C@@H](CC[C@H](C)/C=C\C=C\CC1)O[C@@](O)([C@@H]1CSC(=O)N1)C2` [Latrunculin A], the “orientation response in EF (in words)” value in assay [1] is on record as “suppressed the orientation response significantly”. Besides, the “long:short axis ratio / elongation response in EF-treated cells (in words)” value in assay [2] is on record as “completely abolished the EF-induced elongation response”.
Regarding `CC(=O)N[C@@H](CS)C(=O)O` [N-Acetyl Cysteine], the “effect on the increased migration triggered by LLEC” value in assay [3] is on record as “failed to reproduce the increased migration”.
As for `N#CC(=C(/N)Sc1ccccc1N)/C(C#N)=C(\N)Sc1ccccc1N` [U0126], in assay [1], the “orientation response in EF (in words)” value was “decreased the orientation to a similar extent”.
Turning to `COc1cc2ncnc(Nc3ccc(Cl)cc3F)c2cc1OC` [VEGFR inhibitor, 4-[(4′-chloro-2′-fluoro)phenylamino]-6,7-dimethoxyquinazoline], the “orientation response in EF (in words)” value in assay [1] is “completely abolished the reorientation”.
For the compound `C[C@@H](N)[C@H]1CC[C@H](C(=O)Nc2ccncc2)CC1` [Y27632], in assay [1] (value in sentence on U0126 (50 μM)), the “orientation index Oi” value came to 0.33±0.03. Also, the “long:short axis ratio / elongation response in EF-treated cells (in words)” value in assay [2] was “significantly decreased the long:short axis ratio”.
Regarding catalase, the “effect on the increased migration triggered by LLEC” value in assay [3] is recorded as “attenuated the increased migration”.
